Test results taken from US8546524B2, “Smoothened polypeptides and methods of use” (The United States of America, as represented by the …, priority 2006, dated 2013).
No end group written: not given here. *: point of attachment. Myristoyl = CCCCCCCCCCCCCC(=O)*

What was measured:
[1] = tested on: SK-Mel2 melanoma cells; type: cell-based; conditions: for IC50: MTT assay, SK-Mel2 melanoma cells, 48 hour exposure, Table 4; for inhibitory activity on SK-Mel2 melanoma cells: 48 hours of exposure, second intracellular loop peptides, comment on Table 4; for inhibitory activity of third loop peptides: comment on Table 5; for inhibition of proliferation of SK-Mel2 cells: 60 hours exposure, FIG. 6
Protocol: (§1) DU145 prostate cancer cells, PC3 prostate cancer cells, MCF7 breast cancer cells, or Mel-SK-2 melanoma cells (American Type Culture Collection, Manassas, Va.) are inoculated in 96 well plates at 200-400 cells/well density in DMEM medium containing 10% fetal bovine serum and allowed to attach for 24 hours. Cell suspension of 100 μl is used for each well. Polypeptides in 100 μl medium at 2× concentration are added the next day and kept in the CO2 incubator for 48 hours While the polypeptides are added at a final concentration between 1 nM and 10 μM, assays are performed on extra reference plates to determine the cell population density at time 0 (T0). The cells are stained with Promega Non-Radioactive Cell Proliferation Assay Kit (MTT) according to manufacture's protocol. The absorbance of the wells is determined at 544 nm by a FLUOstar/POLARstar® Galaxy MicroplateReader (BMG Labtechnologies GmbH, Germany). The assays are performed on control (C) and test (T) cells. Cellular responses are calculated from the data using the following formula: 100×[(T−T0)/(C−T0)] for T>T0 and 100×[(T−T0)/T0] for T<T0.
(§2) Polypeptides based on the second or third intracellular loop of SMO (SMOi2 or i3 polypeptides) (as shown in Table 1) are synthesized as described in Example 1 and are tested as described in Example 2 using MCF-7 breast cancer cells or SK-Mel2 melanoma cells. The IC50 of each peptide as determined by the MTT assay in SK-Mel2 melanoma cells after 48 hour exposure to the peptide is shown in Tables 4 and 5.
Peptides SMOi2-18 and SMOi2-21 are made as essentially described in Example 1 and tested as described in Example 2 using SK-Mel2 cells. Cells are exposed to polypeptides or peptidomimetics for 60 hours.

[2] = Critical micelle concentration by WMC-77 fluorescence; type: physicochemical; conditions: deionized water, 25° C., WMC-77 0.4 μM
Source text: To monitor the formation of hydrophobic nanoparticles, a fluorescing imidazoacridone compound WMC-77 (5-{3-[4-(aminopropyl)-piperazin-1-yl]-propylamino}-2,10b-diaza-aceanthrylen-6-one) is used (Tarasov et al., Photochem. Photobiol. 78: 313-322 (2003)). Compounds like WMC-77 tend to enhance their intrinsic fluorescence dramatically when entering an amphiphilic environment of biological macromolecules like DNA (Tarasova et al., 2003, supra) or hydrophobic core of typical micelles (Tarasov et al., Photochem. Photobiol. 70: 568-578 (1999)). […] Atmospheric oxygen quenching is found to be unimportant, since similar values of fluorescence intensity from BIAs are obtained before and after nitrogen purging. […] Uncorrected fluorescence emission spectra are obtained at 25° C. on a Single Photon Counting Spectrofluorometer FLUOROMAX®-2 (Horiba Jobin Yvon, Edison, N.J.). […]
The increase of peptide/fluorophore ratio causes the permanent increase of WMC-77 fluorescence emission intensity, leveling of at ˜2 μM. The changes in the fluorescence signal are similar to those observed during transfer of imidazoacridones from aqueous to non-polar media such as organic solvents (Tarasov et al., 1999, supra), to the cores of classic surfactant micelles (Tarasov et al., 1999, supra) or upon binding to DNA (Tarasov et al., 2003, supra). […]

[3] = tested on: MCF-7 breast cancer cells; assay: MTT growth inhibition assay in MCF-7 breast cancer cells; type: cell-based; conditions: 48-hour treatment, FIG. 1 / FIG. 3
Protocol: as §1, with “The cells are stained with Promega Non-Radioactive Cell Proliferation Assay Kit (MTT) according to manufacture's protocol.” left out, “The assays are performed on control (C) and test (T) cells.” left out, “T<T0. […]” for “T<T0.”
as §2

[4] = tested on: gastric adenocarcinoma cells; assay: Growth inhibition of gastric adenocarcinoma cells (viable cell mass); type: cell-based; conditions: 5 or 10 μM, FIG. 2

## Ac-AKFSTHWAYTLK-εPal (all D-) [SMOi2-17]
[1]
  IC50: 0.4 ± 0.1 nM

## Ac-GTTYQPLSGKTSYK-εPal [SMOi2-7]
[1]
  inhibitory activity on SK-Mel2 melanoma cells: potent inhibitors

## Ac-KFSTHWAYTLK- εPal (all D-) [SMOi2-20]
[1]
  inhibitory activity on SK-Mel2 melanoma cells: most potent inhibitors
  IC50: 0.3 ± 0.1 nM

## Ac-LAKFSTHWAYTLK-ε-Pal (all D-) [SMOi2-16]
[1]
  IC50: 6 ± 0.5 nM

## Ac-LLSEKAASKINETMLRK-[…]ε-Pal [SMO i3-6]
[1]
  inhibitory activity of third loop peptides: among the most potent polypeptides tested

## Ac-LTYAWHTSFKAL [SMOi2-9]
[1]
  inhibitory activity on SK-Mel2 melanoma cells: significantly reduces the inhibitory activity

## Ac-LTYAWHTSFKALGTTYQPLSGKTSYK- ε-Pal [SMOi2-4]
[1]
  IC50: 1000 ± 100 nM

## Ac-YAWHTSFKALGTTYQPLSGKTSYK- εPal [SMOi2-5]
[1]
  IC50: 1000 ± 100 nM

## Myristoyl-LTYAWHTSFKAL [SMOi2-26]
[1]
  inhibitory activity on SK-Mel2 melanoma cells: most potent inhibitors
[1]; myristoyl instead of palmitoyl residue
  potency relative to palmitoyl peptide (fold less potent): 2.5 fold

## Pal-LTYABpaHTSFKAL [SMOi2-18]
[1]
  inhibitory activity on SK-Mel2 melanoma cells: fairly active
  inhibition of proliferation of SK-Mel2 cells: even more potent than that of the polypeptide counterpart, SMOi2-8

## Pal-LTYABpaHTSFKAL-Hcy-Biotin [SMOi2-21]
[1]
  inhibitory activity on SK-Mel2 melanoma cells: totally abolishes the activity
  inhibition of proliferation of SK-Mel2 cells: even more potent than that of the polypeptide counterpart, SMOi2-8

## Pal-LTYAWHTSFK [SMOi2-12]
[1]
  inhibitory activity on SK-Mel2 melanoma cells: most potent inhibitors

## Pal-LTYAWHTSFKA [SMOi2-11]
[1]
  inhibitory activity on SK-Mel2 melanoma cells: most potent inhibitors

## Pal-LTYAWHTSFKAL [SMOi2-8]
[1]
  inhibitory activity on SK-Mel2 melanoma cells: most potent inhibitors
[2]
  critical micelle concentration: 0.5 to 1 µM

## Pal-LTYAWHTSFKALGTTYQP [SMOi2-6]
[1]
  inhibitory activity on SK-Mel2 melanoma cells: potent inhibitors

## Pal-LTYAWHTSFKALGTTYQPLSGKTSYK- ε-Pal [SMOi2-23]
[1]
  inhibitory activity on SK-Mel2 melanoma cells: most potent inhibitors

## Pal-LTYAWHTSFKALGTTYQPLSGKYSY [SMOi2-1]
[3]
  inhibition of growth of MCF-7 cells: inhibit the growth of MCF-7 cells
[4]
  inhibition of growth of gastric adenocarcinoma cells compared with cyclopamine: as well or better than cyclopamine

## Pal-TYAWHTSFKAL [SMOi2-10]
[1]
  inhibitory activity on SK-Mel2 melanoma cells: potent inhibitors

## PalLFSIKSNHPGLLSEKAASKINETMLR [SMO i3-4]
[1]
  inhibitory activity of third loop peptides: significantly less active

## PalLTYAWHTSFKAL (All D) [SMOi2-24]
[1]
  inhibitory activity on SK-Mel2 melanoma cells: most potent inhibitors

## PalRGVMTLFSIKSNHPGLLS [SMO i3-8]
[1]
  inhibitory activity of third loop peptides: among the most potent polypeptides tested

## PalRGVMTLFSIKSNHPGLLSEKA [SMO i3-2]
[1]
  inhibitory activity of third loop peptides: among the most potent polypeptides tested

## PalRGVMTLFSIKSNHPGLLSEKAASKINETMLR [SMO i3-1]
[1]
  inhibitory activity of third loop peptides: among the most potent polypeptides tested
[3]
  inhibition of growth of MCF-7 cells: most significant effect on cell growth
[4]
  inhibition of growth of gastric adenocarcinoma cells compared with cyclopamine: as well or better than cyclopamine

## SEKAASKINETMLRK-ε-Pal [SMO i3-12]
[1]
  inhibitory activity of third loop peptides: among the most potent polypeptides tested

## VWFVVLTYAWHTSFKAL [SMOi2-14]
[1]
  inhibitory activity on SK-Mel2 melanoma cells: does not overcome the loss of activity
  IC50: > 5000 nM

## WFVVLTYAWHTSFKAL [SMOi2-15]
[1]
  inhibitory activity on SK-Mel2 melanoma cells: does not overcome the loss of activity
  IC50: > 5000 nM
